Source: patent US11357782B2, “Treprostinil administration by inhalation” (priority 2006, dated 2022)
“Also recorded” adds a separate entry of the source.

Key:
[1] = tested on: patients with pre-existing gas exchange problems; test: Ventilation-perfusion matching by multiple inert gas elimination technique (MIGET)
Method: The impact of SMI-TRE on ventilation-perfusion matching was assessed in five patients (30 μg TRE, n=2; 45 μg TRE, n=1; 60 μg TRE, n=2) with pre-existing gas exchange problems by use of the multiple inert gas elimination technique (MIGET), see e.g. Wagner PD, Saltzman HA, West JB. Measurement of continuous distributions of ventilation-perfusion ratios: theory. J Appl Physiol. 1974; 36:588-99; Ghofrani HA, Wiedemann R, Rose F, Schermuly RT, Olschewski H, Weissmann N et al. Sildenafil for treatment of lung fibrosis and pulmonary hypertension: a randomised controlled trial. Lancet. 2002; 360:895-900, both incorporated herein in their entirety.
The inhalation of a highly concentrated aerosol can be in theory prone to disturbances of gas exchange because the deposition of even small amounts of aerosol may deliver high doses locally and thereby antagonize the hypoxic pulmonary vasoconstriction in poorly ventilated areas. This would then lead to increased shunt flow or increase of low ventilation/perfusion (V/Q) areas. This question was addressed in five patients with the multiple inert gas elimination technique (MIGET), the gold-standard for intrapulmonary V/Q ratio determination. The MIGET patients were selected for pre-existing gas exchange limitations. […] Etiologies were iPAH (n=1), CTEPH (n=3), pulmonary fibrosis (n=1).

[2] = tested on: patients with moderate to severe precapillary pulmonary hypertension; test: Study i) randomized crossover study of inhaled treprostinil vs inhaled iloprost, right heart catheter; format: in vivo, human; settings: for area under the curve (AUC) of PVR decrease: mean±95% confidence interval
Method: All inhalations were performed with the […]® ultrasonic nebulizer ([…], Germany). Study i) was a randomized, open-label, single-blind crossover study. […] Patient characteristics and hemodynamic as well as gas exchange parameters are outlined in Table 3. Each patient inhaled both iloprost and treprostinil on the same day during right heart catheter investigation; the drugs were administered consecutively with a one hour interval between the drug applications. One half of the study patients initially inhaled treprostinil and then inhaled iloprost (n=22), while the other half initially inhaled iloprost and then inhaled treprostinil (n=22). Patients were randomized to one of the two groups and blinded as to the study drugs. Drug effects were monitored for 60 minutes after each inhalation.

[3] = tested on: patients with severe pulmonary hypertension; test: Study iii) reduction of inhalation time at fixed 15 μg dose, pulsed ultrasonic nebulizer
Method: Study iii) was a randomized, open-label, single blind study. The primary objective was to explore the shortest possible inhalation time for a 15 μg dose of inhaled treprostinil. A total of 48 patients inhaled one dose of TRE during right heart catheter investigation. The drug was applied in 18, 9, 3, 2 or 1 breaths. The aerosol was generated by a pulsed ultrasonic nebulizer (OPTINEB®, Nebutec, Elsenfeld, Germany) in cycles consisting of 2 seconds aerosol production (pulse) and 4 seconds pause. The device included an opto-acoustical trigger for the patient to synchronize the inspiration to the end of the aerosol pulse, thereby providing exact dosage. The TRE dose of 15 μg was either generated during 18 cycles (OPTINEB® filled with 100 μg/ml TRE, n=6), 9 cycles (200 μg/ml TRE, n=6), 3 cycles (600 μg/ml TRE, n=21), 2 cycles (1000m/m1 TRE, n=7) or 1 cycle (2000 μg/ml TRE, n=8). Hemodynamics and gas exchange were recorded for 120-180 minutes.

[4] = 15 μg, 1 pulse, 2000 μg/ml, n=8
[5] = 15 μg, 2 pulses, 1000 μg/ml, n=7
[6] = 15 μg, 3 pulses, 600 μg/ml, n=21
[7] = 15 μg, 9 pulses, 200 μg/ml, n=6
[8] = 15 μg, 18 pulses, 100 μg/ml, n=6

With `CCCCC[C@H](O)CC[C@@H]1[C@H]2Cc3cccc(OCC(=O)[O-])c3C[C@H]2C[C@H]1O.[Na+]` [TRE] the shunt flow ([1]; 60 minutes after SMI-TRE, mean±95% confidence interval, n=5) was 8.3±3.4%, the “low V/Q areas or shunt fraction” value ([1]; after inhalation of SMI-TRE, n=5) was “No significant increase” and the “maximal relative reduction of SaO2” value ([1]; five MIGET patients, compared to baseline values) was −3.8±1.5%. For the same molecule, the “area under the curve (AUC) of PVR decrease” value (“area … of PVR decrease” for short) ([2]; 7.5 μg inhaled in 6 minutes, start of inhalation until 60 min) was −12.6±7.0%, the “area … of PVR decrease” value ([2]; 15 μg inhaled in 6 minutes, until 60 min) was −13.3±3.2% and the “area … of PVR decrease” value ([2]; 15 TRE inhaled in 3 minutes, until 60 min) was −13.6±4.3%. The “PVR values after 60 min” value ([2]; 60 min after inhalation) was “had not yet returned to baseline”, the gas exchange ([2]; after inhalation) was “did not affect gas exchange” and the “systemic arterial pressure (SAP)” value ([2]; after inhalation) was “unaffected”. For the same molecule, the “side effects (transient flush, headache)” value ([2]; iloprost 7.5 μg, treprostinil 7.5-15 μg) was “not observed”, the “maximum effect on PVR” value ([2]; iloprost vs treprostinil, pooled) was “comparable” and the taste ([2]; metacresol-containing TRE solution) was “Bad taste was reported by most of the patients”. The “time to maximum effect on PVR after inhalation” value ([2]; pooled n=44, mean±SEM, p<0.0001) was 18 ± 2 min, the reported side effects ([3]; 15 μg, 48 patients, cough n=6, headache n=2, jaw pain n=1) was “mild transient cough; also recorded: mild headache; also recorded: mild jaw pain” and the cardiac output ([3]; 15 μg, all groups) was “moderately increased”. For the same molecule, the systemic arterial pressure ([3]; 15 μg, all groups) was “not significantly affected”, the “PAP reduced to” value [3, 4] was 88±5.4% and the “PVR reduced to” value [3, 4] was 80.3±5.2%. The “PAP reduced to” value [3, 5] was 86±4%, the “PVR reduced to” value [3, 5] was 77.4±4.5% and the “PAP reduced to” value [3, 6] was 81.1±4.1%. The “PVR reduced to” value [3, 6] was 71.2±6.0%, the “PAP reduced to” value [3, 7] was 84.2±4.1% and the “PVR reduced to” value [3, 7] was 72.9±4.9%. The “PAP reduced to” value [3, 8] was 84.2±4.5%, the “PVR reduced to” value [3, 8] was 76.3±5.6% and the “concentration safely utilized without considerable side effects” value ([3]; metacresol-free TRE solution, modified OPTINEB) was no more than 2000 µg/mL. The “duration of pulmonary vasodilation” value ([3]; single breath of 2000 μg/ml, 15 μg, compared to placebo inhalation) was greater than 3 h.
